Data taken from US20100233456A1, “LIGHT-STABILIZED POLYPROPYLENE” (SUMITOMO CHEMICAL COMPANY, LIMITED, priority 2007, published 2010).

Experiments:
[1] = Acid dissociation constant (pKa) by titration method
Protocol: The pKa value is an index showing an inherent nature of the compound having a 2,2,6,6-tetramethylpiperidyl group represented by the general formula (I), and is measured by a titration method known in the art, which is a measurement method of an acid dissociation constant based on a Brøsted's definition.

[2] = Rate of weight loss by TG/DTA; assay type: physicochemical; settings: heated in nitrogen gas from 25° C. to 300° C. at 10° C./minute
Protocol: Regarding the requirement (c), the rate of decrease in weight by heating under the above conditions is preferably less than 5%, and further preferably less than 3%, from a viewpoint of an emission amount of VOC and light stability. A rate of decrease in weight of the hindered amine light stabilizer (B) is measured using a thermo gravimetry differential thermal analyzer (hereinafter, referred to as TG/DTA). Specifically, the hindered amine light stabilizer (B) is heated from 25° C. to 300° C. at a rate of 10° C./minute in a nitrogen gas atmosphere, which gas is flowed at a constant rate of 100 mL/minute, thereby measuring the rate (percentage) of a weight loss to the original weight with a thermobalance.

Compound | Rate of weight loss by TG-DTA [2] | pKa [1]
CN1C(C)(C)CC(OC(=O)CC(C(=O)OC2CC(C)(C)N(C)C(C)(C)C2)C(CC(=O)OC2CC(C)(C)N(C)C(C)(C)C2)C(=O)OC2CC(C)(C)N(C)C(C)(C)C2)CC1(C)C (stereo not shown) [Example B-2, tetrakis(1,2,2,6,6-pentamethyl-4-piperidyl) 1,2,3,4-buteane tetracarboxylate] | 5.8% | 8.9
N,N-bis(3-aminopropyl)ethylenediamine. 2,4-bis[N-butyl-N-(1,2,2,6,6-pentamethyl-4-piperidyl)amino]-6-chloro-1,3,5-triazine condensate [Example B-5] | 0.6% | 9.2

Further lines, with some results ahead:

Rate of weight loss by TG-DTA [2] | Compound | pKa [1]
19.6% | CC1(C)CC(OC(=O)CCCCCCCCC(=O)OC2CC(C)(C)NC(C)(C)C2)CC(C)(C)N1 [Example B-3, bis(2,2,6,6-tetramethyl-4-piperidyl) sebacate] | 
68.6% | CCCCCCCCON1C(C)(C)CC(OC(=O)CCCCCCCCC(=O)OC2CC(C)(C)N(OCCCCCCCC)C(C)(C)C2)CC1(C)C [Example B-4, bis(1-octyloxy-2,2,6,6-tetramethylpiperidin-4-yl) sebacate] | 
31.6% | CC(C)(C)c1ccc(OC(=O)c2cc(C(C)(C)C)c(O)c(C(C)(C)C)c2)c(C(C)(C)C)c1 [Example B-6, 2,4-di-t-butylphenyl-3,5-di-t-butyl-4-hydroxybenzoate] | 
